Assay results from US20150025025A1, “Immuno-modulators for treating functional epithelial syndromes” (priority 2013, published 2015).

What was measured:
[1] = test system: patients having esophageal erosions; assay: Randomized seven day trial in patients with esophageal erosions (Example 19); format: in vivo, human; details: for Complete Relief, number of patients / Complete Relief, percent of patients: loss of all symptoms by day 8; for Complete Healing, number of patients / Complete Healing, percent of patients: no erosions by endoscopy at day 8
Excerpt: The trial period was seven days. There were two primary end points, i.e., healing and no healing, and three secondary end points, i.e., no relief, partial relief, and complete relief of pain. Healing was defined as no evidence of erosions by endoscopy at day 8 that were present on day 0. No healing was defined as evidence of erosions remaining on day 8.

[2] = test system: patient with functional dyspepsia; assay: Case: patient with functional dyspepsia (Example 14); format: in vivo, human; details: post-prandial early satiety, bloating, indigestion
Excerpt: A person diagnosed with functional dyspepsia according to the Rome II criteria suffered from post-prandial early satiety, bloating, and stomach indigestion. […] Initially, there was only a lessening of post-prandial indigestion.

[3] = test system: gastroduodenal ulceration; assay: Case: equine ulcer colic in a foal (Example 24); format: in vivo; details: prior treatment
Excerpt: A 3 week old equine foal was diagnosed by a large animal veterinarian with gastroduodenal ulceration following 3 days of poor appetite. […] The foal resumed normal diet and activity by day 4 of treatment.

right dorsal colitis = assay: Case: equine right dorsal colitis (Example 23); format: in vivo, horse; details: 8-12 grams four times daily, NSAID stopped
Experimental: An 8 year old quarter horse diagnosed with right dorsal colitis by an equine veterinarian had been on high doses of bananime, a non-steroidal anti-inflammatory (NSAID) pain reliever. Right dorsal colitis is known to be caused by ulcerations within the colon of the horse. Treatment was initiated by cessation of the NSAID and administration of 8-12 grams sucralfate four times daily. […] Oral administration to the horse of 30 ml of an immuno-modulating polygalacturonic-rhamnose suspension every 8 hours led to an improvement in attitude and appetite within 24 hours, a complete cessation of diarrhea in 36 hours, and the resumption of a regular diet in 72 hours.

Row | Compound | Complete Relief, number of patients [1] | Complete Relief, percent of patients [1] [%] | Complete Healing, number of patients [1] | Complete Healing, percent of patients [1] | Complete Healing, percent of patients ([1]; listed as ranitidine) [%] | Effect on symptoms of functional dyspepsia [2] | Effect on symptoms [3] | Course of right dorsal colitis under treatment (right dorsal colitis)
1 | CNC(=C[N+](=O)[O-])NCCSCc1ccc(CN(C)C)o1 [H2B Ranitidine, ranitidine] | 3 | 30 | 0 (0%) | 0 (0%) | 0 | – | – | –
2 | COc1ccc2[nH]c([S+]([O-])Cc3ncc(C)c(OC)c3C)nc2c1 (centres unmarked) [Omeprazole, omeprazole] | 4 | 40 | 3 | 30% | – | – | – | –
3 | COc1ccc2nc([S@@+]([O-])Cc3ncc(C)c(OC)c3C)[nH]c2c1 [esomeprazole] | – | – | – | – | – | failed to improve their symptoms | – | –
4 | COCCCOc1ccnc(C[S+]([O-])c2nc3ccccc3[nH]2)c1C (centres unmarked) [raberazole] | – | – | – | – | – | failed to improve their symptoms | – | –
5 | sucralfate | – | – | – | – | – | failed to improve their symptoms | failed to alleviate the symptoms | worsened after 2 days
